# Reference: US5180735A, “Cyclohexanol derivatives, production and use thereof” (Takeda Chemical Industries, Ltd., priority 1989, dated 1993)
# Assays:
# [1] = system: angiogenesis due to bFGF (rat cornea); test: Angiogenesis inhibitory action by the rat cornea micropocket method; format: in vivo, male Sprague-Dawley rats; details: sustained release pellet, 20 μg sample, next to bFGF pellet (250 ng) in cornea; observed after 10 days
# Source text: Angiogenesis inhibitory action by the rat cornea micropocket method
# Essentially the same method of Gimbrone et al. [J. National Cancer Institute 52:413-419 (1974)] was follows.
# Specifically, adult male Sprague-Dawley rats (11 to 16 week old) were anesthetized with nembtal and locally anesthetized by instillation of xylocaine eyedrops onto the eyeball. The cornea was incised to a length of about 2 mm at about 2 mm inside from the corneal circumference by means of an injection needle, and a basic fibroblast growth factor (bFGF, bovine brain-derived, purified product, R & D Inc.) and a sustained release pellet containing the test sample were inserted side by side into the incision so that the bFGF pellet was located on the central side in the cornea. In the control group, the bFGF pellet and a sample-free pellet were inserted into the cornea. After 10 days, the cornea was observed under a stereoscopic microscope.
# The sustained release pellets were prepared in the following manner. An ethylene-vinyl acetate copolymer (Takeda Chemical Industries, Ltd.) was dissolved in dichloromethane to a concentration of 8%. A 3 μl portion of the solution was air-dried on a glass dish, an aqueous solution of bFGF (250 ng) was then placed thereon and air-dried and, finally 3 μl of the above-mentioned ethylene-vinyl acetate copolymer solution was placed further thereon and air-dried to give a sandwich sheet. This sandwich sheet was made round into a bFGF pellet. The test sample pellets were prepared by dissolving each sample in ethanol to a concentration of 20 μg/2 μl, mixing the solution with 6 μl of an ethylene-vinyl acetate copolymer solution, air-drying the mixed solution on a glass dish and making the thus-obtained sheet round.
# In the above Table 1, the number of rats subjected to the test was shown by denominator, and the number of rats whose […] due to bFGF was retarded or weakened by administration of the test sample was shown by numerator. In the judgment, +means an inhibition rate of 70% or more, and ±means that of less than 70% but exceeding 40%.
# M5076 cells = test: Antitumor test in mice inoculated subcutaneously with M5076 cells (tumor size, T/C); format: in vivo, C57BL/6 mice; details: Mus musculus, M5076, sc, 312 h, 30 mg/kg, subcutaneous, 10 times in total; tumor size after 13 days; read-out: T/C (%) (ratio of tumor size to control group)
# Protocol: C57BL/6 mice (a group consisting of 6 mice) were inoculated subcutaneously at the dorsolateral area with 2×10^6 M5076 cells, and then a test compound dissolved in a 5% gum arabic physiological saline solution was subcutaneously administered 10 times in total, i.e. 1st, 2nd, 4th, 5th, 6th, 7th, 8th, 9th, 11th and 12th day after the inoculation. After 13 days, the major axis (a) and the minor axis (b) of the tumor tissue were measured to determine the tumor size by the calculation formula of a×b^2 ×1/2. The ratio of the tumor size thus calculated to the tumor size of animals in the control group was shown by T/C (%).
structure (smiles),measurement,setting,value
"C=C(C)C(=O)NC(=O)O[C@@H]1CC[C@](O)(CCl)[C@@H]([C@@]2(C)O[C@@H]2CC=C(C)C)[C@@H]1OC [Example 3, 4-O-(methacryloylcarbamoyl)-2-(1,2-epoxy-1,5-dimethyl-4-hexenyl)-3-methoxy-1-chloromethyl-1,4-cyclohexanediol]",Inhibitory Rate (rats whose angiogenesis due to bFGF was retarded or weakened / rats subjected to the test),[1],4/7
same,Judgment (Angiogenesis Inhibitory Activity),[1],± (that of less than 70% but exceeding 40%)
same,response vs control in vivo at 30 mg/kg,M5076 cells,36%
